Source: ChEMBL document CHEMBL1201862, “PubChem BioAssay data set” (2004)
Active and inactive are the calls of the source.

Columns and labels:
[1] = target: Heat shock protein HSP 90-alpha (Homo sapiens, UniProt P07900); assay type: functional, organism-based
[2] = target: T1, Calpain-2 catalytic subunit (Sus scrofa, UniProt P43367); assay: pig calpain II inhibitor potency, dose response, biochemical, fluorogenic peptide substrate (AID 1420); assay type: functional
T1 sequence (P43367 whole entry): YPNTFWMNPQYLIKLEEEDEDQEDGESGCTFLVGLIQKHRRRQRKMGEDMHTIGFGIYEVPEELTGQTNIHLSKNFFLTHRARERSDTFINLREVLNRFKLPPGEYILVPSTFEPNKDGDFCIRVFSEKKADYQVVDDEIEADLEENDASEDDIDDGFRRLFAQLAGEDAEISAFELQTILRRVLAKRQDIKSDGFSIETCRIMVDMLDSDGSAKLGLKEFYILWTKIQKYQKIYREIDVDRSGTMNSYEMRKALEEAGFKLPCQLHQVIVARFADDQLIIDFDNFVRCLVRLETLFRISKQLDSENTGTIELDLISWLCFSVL

[3] = target: T2, Rac GTPase-activating protein 1 (Homo sapiens, UniProt Q9H0H5); assay: MgcRacGAP GTPase-activating activity inhibitors, confirmation, biochemical, ADP Hunter fluorescence, primary and confirmatory (AID 624330); assay type: functional
T2 sequence (Q9H0H5 whole entry): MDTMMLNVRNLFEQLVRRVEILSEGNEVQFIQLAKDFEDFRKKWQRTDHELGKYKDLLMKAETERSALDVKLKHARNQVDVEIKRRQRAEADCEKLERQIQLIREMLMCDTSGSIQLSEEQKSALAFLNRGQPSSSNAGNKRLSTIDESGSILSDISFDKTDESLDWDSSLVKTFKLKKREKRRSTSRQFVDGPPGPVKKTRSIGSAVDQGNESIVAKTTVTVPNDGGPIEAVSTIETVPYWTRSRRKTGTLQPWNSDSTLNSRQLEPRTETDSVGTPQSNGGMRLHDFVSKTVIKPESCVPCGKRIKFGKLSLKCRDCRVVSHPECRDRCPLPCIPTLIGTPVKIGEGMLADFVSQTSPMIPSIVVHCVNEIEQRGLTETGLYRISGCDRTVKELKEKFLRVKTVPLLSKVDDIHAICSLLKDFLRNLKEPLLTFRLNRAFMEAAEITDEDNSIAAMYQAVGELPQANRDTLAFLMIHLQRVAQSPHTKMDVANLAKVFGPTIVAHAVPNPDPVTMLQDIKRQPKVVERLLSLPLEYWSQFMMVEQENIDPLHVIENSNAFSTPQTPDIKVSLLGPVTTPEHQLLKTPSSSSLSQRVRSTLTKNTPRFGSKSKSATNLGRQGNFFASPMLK

Large T antigen = Large T antigen (Simian virus 40, UniProt P03070); assay type: functional, Betapolyomavirus macacae;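 note: Confirmatory-stage PubChem screen for compounds that inhibit SV40 T antigen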
INS1 = assay: beta cell apoptosis inhibitors, cytokine rescue, dose response, luminescence, retest (AID 449756); assay type: functional, cell-based; details: Rattus norvegicus;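 note: cell death triggered by IL-1 beta plus TNF-alpha plus IFN-gamma mixture; protective hits raise ATP signal compared with cytokine alone wells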
Streptococcus = assay: Group A Streptococcus viability loss, dose response, counter-screen for streptokinase expression inhibitor project, luminescence, BacTiterGlo (AID 1915); assay type: functional, organism-based;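 note: potency for reduction of bacterial viability or growth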
Streptokinase A = target: T3, Streptokinase A (Streptococcus pyogenes serotype M1, UniProt P10520); assay: S. pyogenes streptokinase expression inhibitors, potency, dose response, plasminogen activation absorbance, OD405 (AID 1914); assay type: functional, Streptococcus pyogenes M1 GAS;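 note: secreted streptokinase activity via plasminogen activation per viability signal from cell pellet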
T3 sequence (P10520 whole entry): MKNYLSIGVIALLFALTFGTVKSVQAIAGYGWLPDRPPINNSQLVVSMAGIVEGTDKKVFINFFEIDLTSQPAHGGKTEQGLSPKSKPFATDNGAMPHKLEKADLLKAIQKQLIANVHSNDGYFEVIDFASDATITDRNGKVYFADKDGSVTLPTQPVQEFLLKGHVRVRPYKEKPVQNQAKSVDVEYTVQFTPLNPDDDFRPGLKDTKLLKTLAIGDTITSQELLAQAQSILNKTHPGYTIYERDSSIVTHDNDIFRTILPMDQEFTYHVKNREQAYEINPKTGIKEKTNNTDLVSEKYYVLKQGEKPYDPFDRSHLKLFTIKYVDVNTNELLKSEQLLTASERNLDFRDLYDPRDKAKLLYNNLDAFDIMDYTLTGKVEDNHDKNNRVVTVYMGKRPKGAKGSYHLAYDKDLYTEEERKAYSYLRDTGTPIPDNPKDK

[4] = inhibitors of SNCA 5'UTR-driven reporter translation, confirmation, H4 neuroglioma cells, luminescence (AID 1988); assay type: functional, cell-based
[5] = inhibitors of firefly luciferase expression or activity, dose response, H4 neuroglioma cells, luminescence (AID 1990); assay type: functional, cell-based
[6] = tested on: Streptococcus sp. 'group A'; assay: growth inhibition of control SK(-) GAS strain, dose response, counter-screen for streptokinase expression inhibitor project, luminescence, kanamycin, BacTiterGlo, confirmation (AID 1900); assay type: functional, organism-based
[7] = Luminescence Cell-Based Dose Response HTS to Identify Inhibitors of 5'UTR Stem-Loop Driven Prion Protein mRNA Translation in H4 Neuroglioblastoma Cells. [Related pubchem assays: 1827 (Project Summary), 1813 (Primary HTS)]; assay type: functional
[8] = cytotoxicity toward DRD oncogenic fibroblasts, dose response, cell-based, non-viral oncogenic, luminescence (AID 1934); assay type: functional; details: Homo sapiens
[9] = target: T4, Heat shock factor protein 1 (Mus musculus, UniProt P38532); assay: HSF1 potentiators in luciferase reporter cells, confirmation, cell-based, NIH3T3, luminescence, dose retest (AID 435004); assay type: functional;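 note: stress induced by proteasome inhibitor MG132 added 30 min after compound; luciferase reporter driven by HSF1 response element in NIH3T3 cells; actives raise luminescence as potentiators of the MG132 stress response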
T4 sequence (P38532 whole entry): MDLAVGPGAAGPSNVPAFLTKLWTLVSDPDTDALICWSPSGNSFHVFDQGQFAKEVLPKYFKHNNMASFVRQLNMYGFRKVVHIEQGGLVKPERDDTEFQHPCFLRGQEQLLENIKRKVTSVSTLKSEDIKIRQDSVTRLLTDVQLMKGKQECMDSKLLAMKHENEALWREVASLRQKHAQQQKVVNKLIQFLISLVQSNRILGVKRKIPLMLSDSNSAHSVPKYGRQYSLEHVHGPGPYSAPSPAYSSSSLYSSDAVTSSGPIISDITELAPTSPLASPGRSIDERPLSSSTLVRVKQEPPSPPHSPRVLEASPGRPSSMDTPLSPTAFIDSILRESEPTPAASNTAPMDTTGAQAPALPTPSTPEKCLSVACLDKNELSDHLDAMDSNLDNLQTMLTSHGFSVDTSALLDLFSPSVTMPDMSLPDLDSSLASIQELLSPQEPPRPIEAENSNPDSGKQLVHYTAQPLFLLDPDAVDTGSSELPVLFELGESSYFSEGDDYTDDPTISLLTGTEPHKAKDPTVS

BJ [10] = assay: cytotoxicity toward BJ-TERT-LT-ST fibroblasts, dose response, cell-based, RAS-independent, luminescence (AID 1935); assay type: functional; details: Homo sapiens;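 note: BJ fibroblasts immortalized with TERT plus LT and ST oncogenes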
Protein RecA = target: T5, Protein RecA (Mycobacterium tuberculosis, UniProt P9WHJ3); assay: Fluorescence Cell-Free Homogeneous Dose Retest to Identify Inhibitors of RecA-Intein Splicing Activity. [Related pubchem assays (depositor defined):AID2097, AID2223, AID489010, AID492950]; assay type: functional
T5 sequence (P9WHJ3 whole entry): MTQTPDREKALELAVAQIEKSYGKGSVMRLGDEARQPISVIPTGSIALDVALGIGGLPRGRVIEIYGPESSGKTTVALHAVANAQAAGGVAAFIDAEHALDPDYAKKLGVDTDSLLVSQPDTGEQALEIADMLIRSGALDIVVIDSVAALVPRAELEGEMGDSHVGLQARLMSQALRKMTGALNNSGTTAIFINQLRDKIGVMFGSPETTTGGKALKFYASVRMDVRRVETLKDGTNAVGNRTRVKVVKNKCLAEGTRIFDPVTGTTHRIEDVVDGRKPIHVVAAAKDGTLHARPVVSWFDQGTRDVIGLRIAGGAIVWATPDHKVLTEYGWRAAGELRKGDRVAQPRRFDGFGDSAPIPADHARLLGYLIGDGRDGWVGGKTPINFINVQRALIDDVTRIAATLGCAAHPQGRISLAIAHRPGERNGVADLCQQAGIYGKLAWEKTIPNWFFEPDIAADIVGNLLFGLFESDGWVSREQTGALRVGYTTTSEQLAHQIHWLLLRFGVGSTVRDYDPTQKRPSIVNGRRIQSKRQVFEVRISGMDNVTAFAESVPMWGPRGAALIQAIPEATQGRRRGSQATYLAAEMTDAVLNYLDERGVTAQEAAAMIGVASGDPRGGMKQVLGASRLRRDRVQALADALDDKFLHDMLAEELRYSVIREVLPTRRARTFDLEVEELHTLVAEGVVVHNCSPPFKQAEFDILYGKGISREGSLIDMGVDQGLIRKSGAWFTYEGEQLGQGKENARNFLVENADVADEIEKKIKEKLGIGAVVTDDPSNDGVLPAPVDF

BJ [11] = assay: cytotoxicity toward BJ-TERT fibroblasts, dose response, cell-based, RAS-independent, luminescence (AID 1933); assay type: functional; details: Homo sapiens
BJ [12] = assay: cells; assay type: functional, cell-based; details: Homo sapiens
[13] = target: T6, Replicative DNA helicase DnaB (Mycobacterium tuberculosis, UniProt P9WMR3); assay: DnaB intein splicing inhibitors, dose response, biochemical, cell-free fluorescence (AID 449749); assay type: functional
T6 sequence (P9WMR3 whole entry): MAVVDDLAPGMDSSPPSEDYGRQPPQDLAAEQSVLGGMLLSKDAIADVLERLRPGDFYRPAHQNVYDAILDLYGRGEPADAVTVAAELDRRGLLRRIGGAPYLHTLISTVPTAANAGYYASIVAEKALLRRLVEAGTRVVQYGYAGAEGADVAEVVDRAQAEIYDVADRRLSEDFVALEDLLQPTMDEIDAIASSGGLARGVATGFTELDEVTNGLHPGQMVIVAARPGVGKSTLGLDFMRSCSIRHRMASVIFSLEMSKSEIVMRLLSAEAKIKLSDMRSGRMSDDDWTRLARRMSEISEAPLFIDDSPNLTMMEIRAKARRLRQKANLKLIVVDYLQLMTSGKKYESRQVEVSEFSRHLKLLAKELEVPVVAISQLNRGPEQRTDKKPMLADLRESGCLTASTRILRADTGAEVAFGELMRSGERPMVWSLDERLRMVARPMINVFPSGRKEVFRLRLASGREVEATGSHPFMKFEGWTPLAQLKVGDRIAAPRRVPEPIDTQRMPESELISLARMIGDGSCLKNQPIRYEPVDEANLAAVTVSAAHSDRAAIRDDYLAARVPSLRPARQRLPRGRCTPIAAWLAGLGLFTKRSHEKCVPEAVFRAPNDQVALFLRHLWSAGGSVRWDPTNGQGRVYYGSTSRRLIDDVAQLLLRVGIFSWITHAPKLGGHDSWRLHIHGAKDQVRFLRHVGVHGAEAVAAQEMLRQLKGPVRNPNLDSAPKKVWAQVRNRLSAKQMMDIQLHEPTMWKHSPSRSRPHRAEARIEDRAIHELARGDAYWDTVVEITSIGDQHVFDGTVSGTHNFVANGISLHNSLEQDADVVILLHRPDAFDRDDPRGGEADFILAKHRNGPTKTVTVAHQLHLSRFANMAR

[14] = inhibitors of intracellular T. cruzi replication, confirmation, NIH3T3 host cells, beta-gal luminescence (AID 2044); assay type: functional, cell-based;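 note: intracellular parasites grown in NIH/3T3 mouse fibroblasts as host cells; luminescent beta-galactosidase reporter signal from transgenic T. cruzi replicating inside host cells; inhibitors lower the luminescence signal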
[15] = cytotoxicity toward NIH3T3 fibroblasts, dose response, counter-screen, cell-based, ATP luminescence, mouse fibroblasts (AID 2010); assay type: functional;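 note: cells exposed to compound for about 90 hours before reading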

Sequence of Large T antigen (P03070 whole entry): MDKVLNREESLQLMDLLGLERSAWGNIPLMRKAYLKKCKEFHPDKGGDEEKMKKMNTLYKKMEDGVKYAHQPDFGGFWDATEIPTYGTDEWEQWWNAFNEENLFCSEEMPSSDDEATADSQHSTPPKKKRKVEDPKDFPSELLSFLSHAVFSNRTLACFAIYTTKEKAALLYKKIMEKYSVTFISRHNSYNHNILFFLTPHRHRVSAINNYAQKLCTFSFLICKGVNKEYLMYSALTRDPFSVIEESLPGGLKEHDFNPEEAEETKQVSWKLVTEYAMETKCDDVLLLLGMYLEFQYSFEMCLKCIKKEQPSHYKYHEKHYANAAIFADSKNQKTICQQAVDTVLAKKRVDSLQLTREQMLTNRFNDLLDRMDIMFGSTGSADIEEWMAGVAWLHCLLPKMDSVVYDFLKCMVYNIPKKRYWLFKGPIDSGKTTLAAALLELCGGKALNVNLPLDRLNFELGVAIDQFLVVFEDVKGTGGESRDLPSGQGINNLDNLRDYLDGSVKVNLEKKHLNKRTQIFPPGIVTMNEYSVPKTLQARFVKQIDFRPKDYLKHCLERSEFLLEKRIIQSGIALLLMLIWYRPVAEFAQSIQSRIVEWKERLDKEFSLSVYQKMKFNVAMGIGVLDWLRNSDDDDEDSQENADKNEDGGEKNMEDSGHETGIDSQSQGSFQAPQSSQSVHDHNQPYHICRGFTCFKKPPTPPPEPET

O=c1cc(-c2ccccc2)cc(-c2ccccc2)n1O
AC50 [1]: 1.13 µM (active)

Cc1cccc(-c2noc(CN(C(=O)/C=C/c3ccccc3Cl)C(C)C)n2)c1
IC50 [2]: 13.3 µM (not active)

Cc1[nH]c2ccccc2c1CCN(Cc1cccnc1)C(S)=Nc1ccc(F)cc1
IC50 [2]: > 50 µM (not active)

C=CCNc1ccc(N2C(=O)C3CCC(C)CC3C2=O)cc1[N+](=O)[O-] (stereo unspecified)
IC50 [2]: 4.48 µM (not active)

COC(=O)c1ccc(NC2(C#N)C(=O)Nc3ccccc32)cc1 (stereo unspecified)
IC50 [2]: > 50 µM (not active)

COc1cc(CN(C)CCc2ccccn2)cc(OC)c1OC
IC50 [3]: 101 µM (active)

COc1ccc(NC(=O)CN2CCN(c3nc(-c4ccc(F)cc4)cs3)CC2)c(OC)c1
IC50 [2]: 5.73 µM (not active)

Oc1ccc(-c2csc(Nc3ccccn3)n2)cc1
IC50 [3]: 65.8 µM (active)

Oc1nc(SCc2ccccc2Cl)nc(-c2ccc(Cl)cc2)n1
IC50 [2]: 4.51 µM (not active)

CC1CCN([S+]([O-])C23CC4CC(CC(C4)C2)C3)CC1 (stereo unspecified)
IC50 [2]: > 50 µM (not active)

O=C(CNC1CCCCCC1)Nc1ccccc1N1CCOCC1
IC50 [3]: 177 µM (active)

OC(COc1ccccc1)Cn1c2ccccc2c2ccccc21 (stereo unspecified)
IC50 [2]: 7.48 µM (not active)

COC(C(=O)N/N=C(\C)CC(=O)Nc1ccc(N(C)C)cc1)c1ccccc1 (stereo unspecified)
IC50 (Large T antigen): 11.1 µM (active)
IC50 [3]: 50.3 µM (active)

N#CC(c1ccncc1)(c1ncc(C(F)(F)F)cc1Cl)N1CCOCC1 (stereo unspecified)
IC50 [2]: 19.2 µM (not active)

CCCCCCCCCCOC(=O)C[N+](C)(C)C/C=C(/C)Cl
AC50 (INS1): 13.3 µM (active)

COc1cc(/C=N/NC(=O)CCc2ccccc2)ccc1O
IC50 [3]: 28.7 µM (active)

O=C(N/N=C/c1cc([N+](=O)[O-])ccc1O)c1cccc(NC(=O)c2cccc(Cl)c2)c1
EC50 (Streptococcus): 18.7 µM (active)
AC50 (INS1): 2.18 µM (active)
EC50 (Streptokinase A): > 150 µM (not active)
EC50 [4]: 10.6 µM (active)
EC50 [5]: 12.7 µM (active)
EC50 [6]: 5.18 µM (active)
EC50 [7]: 13.3 µM (active)

NS(=O)(=O)c1cccc(NC(=O)CN2CCC(Cc3ccccc3)CC2)c1
IC50 [2]: 25.9 µM (not active)

ClC(Cl)(Cl)c1nc2ccccc2n2nncc12
EC50 [8]: 13.1 µM (active)
EC50 [9]: 5.46 µM (active)
EC50 (BJ [10]): 18.7 µM (active)
EC50 (Protein RecA): 6.03 µM (active)
EC50 (BJ [11]): 6.96 µM (inconclusive)
EC50 (BJ [12]): 13.7 µM (active)
AC50 [13]: 39.3 µM (active)

Cn1nnnc1SC(C(=O)Nc1cccc(C(F)(F)F)c1)c1ccccc1 (stereo unspecified)
IC50 [2]: 16.4 µM (active)

Cc1ccnc(NC(=O)c2ccc([N+](=O)[O-])s2)c1
AC50 (INS1): 6.55 µM (active)
EC50 [14]: 0.743 µM (active)
EC50 [15]: > 60 µM (not active)
